The test system of series [1] is ivPTZ seizure threshold, mice. Put plainly: timed ivPTZ seizure threshold test. Format: in vivo, mouse. As to conditions: for effect on the threshold for the onset of any of the studied end points (ivPTZ): 30 min before test. The protocol: The effects of (R)-31, (R)-32, and (R)-33 on the thresholds for the first myoclonic twitch, generalized clonus with loss of righting reflex, and forelimb tonus in the timed ivPTZ seizure test in mice were evaluated in the following step of pharmacological characterization. […] It should be noted that the ivPTZ seizure test is an extremely sensitive method for determining the seizure threshold in rodents.[47] In this model, (R)-31 at a dose of 50 mg/kg had no effect on the threshold for the onset of any of the studied end points. […] Compounds (R)-32 and (R)-33 were tested at a dose of 50 mg/kg only. […] (R)-33 was ineffective in the ivPTZ seizure threshold test.
Figure 2 Effect of eutomers (R)-31, (R)-32, and (R)-33 on the thresholds for the onset of (A) myoclonic twitch, (B) generalized clonus, and (C) forelimb tonic extension in the timed ivPTZ test in mice. (R)-31, (R)-32, and (R)-33 were administered, i.p., 30 min before the seizure test. Control animals received vehicle. Data are presented as means + SD in mg/kg of PTZ necessary to induce each of the three end points (n = 7–14 animals). Statistical significance was evaluated using Student’s t-test: **p < 0.01, ****p < 0.0001 vs the vehicle-treated group (GraphPad Prism 8.4.3).
30 min prior to the testing, eutomers (R)-31, (R)-32, and (R)-33 were given i.p. after being suspended in a 1% Tween 80 solution. To reduce the number of animals utilized, neuromuscular strength measurements were made right before the seizure threshold test. The grip-strength test and the timed ivPTZ test experimental protocols were covered in full elsewhere.[87]

The next series concerns Na+ channel (site 2). Put plainly: Na+ channel (site 2) radioligand binding. As to conditions: 10 μM, rat cerebral cortex. The protocol: The current body of literature consistently reports that both sodium (Navx) and Cav1.2 calcium ion channels can be involved in the pathogenesis of epilepsy[67]−[69] and neuropathic pain.[70]−[73] […] Therefore, we performed binding and functional studies toward sodium (site 2) and calcium Cav1.2 channels at concentrations of 10 μM for (R)-31−(R)-33.
(§1) Using previously described testing methodologies, binding/functional tests were conducted on a commercial basis at Eurofins Laboratories (Poitiers, France) and Eurofins Panlabs Discovery Services Taiwan, Ltd. (New Taipei City, Taiwan); see Table S9 for more information.
(§2) Table S9. Radioligand binding and functional assays. […]
(§3) Assays were performed commercially in Eurofins Laboratories (Poitiers, France) or Eurofins Panlabs Discovery Services
(§4) Taiwan, Ltd. (New Taipei City, Taiwan).

Series [2] deals with 6 Hz (32 mA) seizures, mice. Put plainly: 6 Hz (32 mA) psychomotor seizure test.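 As to all read-outs here: compounds given as one i.p. dose suspended in 1% aqueous Tween 80, with the 6 Hz (32 mA) model considered to reflect focal epilepsy in humans.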 Format: in vivo. The following applies: Mus musculus, ip, mice; for responders at 100 mg/kg: 100 mg/kg i.p., 0.5 h, read-out: 6 Hz (32 mA): number of mice protected/number of mice tested (converted); for ED50: pretreatment time 0.5 h.
From the text: Both the aforementioned parameters (ED50 and TD50) enabled the calculation of protective indexes (PIs), which reflect the comparative the benefit–risk ratio of these experimental therapeutic agents.
Four mice per group were randomly assigned to each experimental group in the initial screening experiments (each mouse was used just once). Four groups, each with eight animals, received injections of different doses of the investigated substances in order to determine the ED50 or TD50 values. The PIs for the compounds investigated and reference ASMs were calculated by dividing the TD50 value, as determined in the chimney test by the respective ED50 value, as determined in the MES, scPTZ, or 6 Hz (32 mA or 44 mA) tests (PI = TD50/ED50). The PIs are a measure of the potential therapeutic window of the tested agent.
The test system of a further series is scPTZ seizures, mice. The series is described as follows: subcutaneous pentylenetetrazole (scPTZ) seizure test. Format: in vivo, mouse. The following applies: 100 mg/kg i.p., 0.5 h; for protection in the scPTZ seizures: four mice. The protocol: R-enantiomers (R)-31–(R)-33 due to broad and potent activity in both MES and 6 Hz (32 mA) were further evaluated in the scPTZ seizures. […] (i.e., KA-104, Figure 1) to acetyl moiety causes almost complete loss of protection against PTZ seizures.
All substances were suspended in Tween 80 (1% aqueous solution) and administered i.p. as a single injection at a volume of 10 mL/kg. On each day of experimentation, fresh solutions were prepared. The detailed in vivo procedures are described elsewhere: the maximal electroshock seizure test (MES),[83] the subcutaneous pentylenetetrazole seizure test (scPTZ),[84] the 6 Hz psychomotor seizure model (32 mA and 44 mA),[85] and the chimney test.[86] The reference ASMs were purchased from commercial suppliers: VPA (Sigma-Aldrich, St. Louis, MO, USA), LCS and LEV (UCB Pharma, Braine l’Alleud, Belgium).

Another series concerns body temperature, mice. The series is described as follows: capsaicin-induced hypothermia test / rectal temperature. Format: in vivo, mouse. As to conditions: 50 mg/kg i.p. The protocol: In this study, we used the capsaicin-induced hypothermia model in mice to evaluate the effect of eutomers (R)-31, (R)-32, and (R)-33 on body temperature and to provide more data related to their on-target activity (i.e., antagonism of TRPV1) (Figure S5A–D). Capsaicin given i.p. at a dose of 5 mg/kg produced a marked decrease in rectal temperature at 15 min post injection (p < 0.0001). The temperature returned to normal values within 30–60 min after capsaicin injection. […] None of the tested compounds reversed the capsaicin-induced hypothermia.
The changes in body temperature in the capsaicin-induced hypothermia model were evaluated as described previously. Eutomers (R)-31, (R)-32, and (R)-33 were suspended in a 1% Tween 80 and administered i.p. 15 min before injection of capsaicin (5 mg/kg, i.p.). The corresponding vehicles (1% DMSO or 1% Tween 80) were given to the control animals. Using an electronic thermometer (ThermoWorks, Alpine, Utah, USA), changes in the mouse’s rectal temperature were recorded by inserting the rectal probe approximately 2 cm into the mouse’s rectum. After −15, 0, 15, 30, 60, 90, 120, and 180 min, the measurements were collected. Subsequently, the variations in rectal temperature between the baseline ([…] for the groups receiving compounds and BCTC in conjunction with the vehicle, or […] for the groups receiving the vehicle, compounds, and BCTC in combination with the capsaicin) and the corresponding time point ΔT (°C) were computed and examined.
Figure S5. Acute effects of BCTC (A), (R)-31 (B), (R)-32 (C), and (R)-33 (D) on rectal temperature in the capsaicin-induced test in mice. Capsaicin (CPS) or vehicle (1% DMSO) were injected i.p. at 0 min, as indicated by the arrows.
BCTC, (R)-31, (R)-32, and (R)-33 were suspended in 1% Tween 80 and administered i.p. 15 min before CPS or vehicle injection. The temperature was measured at -15, 0, 15, 30, 60, 90, 120, and 180 min. Since body temperature returned to control values 60 min after CPS injection, subsequent measurements are not shown.
Data are presented as the mean differences (ΔT) in rectal temperature from 0 to -15 min (time point 0 min), from 15 to 0 min (time point 15 min), from 30 to 0 min (time point 30 min), and from 60 to 0 min (time point 60 min); n = 6–8 animals/group. Statistical significance was evaluated using one-way ANOVA with Tukey’s post hoc test: […]
(1 picture or pasted object on this page, not shown here)

For a further series, the target named is T1, TRPV1 (VR1) (h) (Homo sapiens, UniProt Q8NER1).
T1 construct: host or cells: CHO cells
T1 sequence (Q8NER1 whole entry): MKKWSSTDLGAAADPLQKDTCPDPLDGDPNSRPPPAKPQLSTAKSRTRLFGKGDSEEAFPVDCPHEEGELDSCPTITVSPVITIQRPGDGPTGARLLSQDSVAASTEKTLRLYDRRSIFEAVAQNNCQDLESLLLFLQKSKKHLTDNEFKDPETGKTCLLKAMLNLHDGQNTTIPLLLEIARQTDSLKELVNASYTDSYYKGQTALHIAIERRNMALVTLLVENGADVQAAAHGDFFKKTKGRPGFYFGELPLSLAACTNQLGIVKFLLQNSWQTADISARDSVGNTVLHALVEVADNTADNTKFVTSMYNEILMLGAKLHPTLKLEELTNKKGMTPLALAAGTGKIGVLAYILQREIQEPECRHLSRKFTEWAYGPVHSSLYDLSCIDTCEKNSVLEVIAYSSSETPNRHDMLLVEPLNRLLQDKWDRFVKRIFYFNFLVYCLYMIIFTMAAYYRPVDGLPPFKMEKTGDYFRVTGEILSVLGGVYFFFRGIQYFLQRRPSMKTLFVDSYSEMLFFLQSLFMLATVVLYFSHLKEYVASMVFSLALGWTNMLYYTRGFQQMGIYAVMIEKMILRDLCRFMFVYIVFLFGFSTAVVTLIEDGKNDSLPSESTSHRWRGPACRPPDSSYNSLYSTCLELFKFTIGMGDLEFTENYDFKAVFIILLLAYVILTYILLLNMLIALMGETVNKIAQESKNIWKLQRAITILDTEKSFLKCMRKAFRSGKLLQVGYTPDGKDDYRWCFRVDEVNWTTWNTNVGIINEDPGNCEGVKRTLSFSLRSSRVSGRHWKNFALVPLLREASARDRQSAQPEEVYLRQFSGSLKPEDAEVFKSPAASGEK
The series is described as follows: TRPV1 (VR1) (h) (antagonist effect). Format: cell-based. The following applies: human recombinant CHO cells, antagonist effect; for Kb: read-out: KB (dissociation constant). The protocol:
Further in vitro functional studies confirmed TRPV1 antagonist activity for (R)-31–(R)-33.
as §1, §2
TRPV1 (VR1) (h) (antagonist effect) […]
as §3, §4

Structures are written as SMILES.

As a reminder, the ED50 is the dose at which the effect has come halfway, by size or by number of responders. The term IC50 denotes the point on the concentration scale where inhibition reaches its midpoint. For orientation: Kb means the equilibrium dissociation constant of an antagonist, usually derived from a functional assay.

On to `CC(=O)N[C@@H](C(=O)N1CCN(c2cccc(C(F)(F)F)c2)CC1)c1ccccc1` [(R)-31, (R)-N-(2-Oxo-1-phenyl-2-(4-(3-(trifluoromethyl)phenyl)piperazin-1-yl)ethyl)acetamide], for which the “effect on the threshold for the onset of any of the studied end points (ivPTZ)” value in series [1] (50 mg/kg i.p.) was “had no effect”. In series [1] (100 mg/kg i.p., p < 0.01), the “threshold for generalized clonic seizure (ivPTZ)” value was “significantly raised the threshold”. For the same compound, the “% inhibition of control specific binding” value in the series on Na+ channel (site 2) is 33.9 (10) %. For the same compound, in series [2], the responders at 100 mg/kg was 100% and the ED50 stood at 34.5 mg/kg. Also, in the series on scPTZ seizures, mice, the “protection in the scPTZ seizures” value worked out at 25% and the “scPTZ: number of mice protected/number of mice tested” value is recorded as 1/4. Moreover, the “effect on body (rectal) temperature, administered alone” value (from here on “effect on body (rectal) temperature”) with body temperature, mice is given as “did not significantly affect body temperature”. For the same compound, at TRPV1 (VR1) (h), the IC50 stood at 3500 nM and the antagonist equilibrium constant (Kb) is 460 nM.

As to `CC(=O)N[C@@H](C(=O)N1CCN(c2cccc(SC(F)(F)F)c2)CC1)c1ccccc1` [(R)-33, (R)-N-(2-Oxo-1-phenyl-2-(4-(3-((trifluoromethyl)thio)phenyl)piperazin-1-yl)ethyl)acetamide], in series [1] (50 mg/kg i.p.), the “effect on the threshold for the onset of any of the studied end points (ivPTZ)” value was “ineffective”. The “% inhibition of control specific binding” value in the series on Na+ channel (site 2) is given as 63.2 (10) %. In addition, in series [2], the responders at 100 mg/kg is 100% and the ED50 turned out to be 23.9 mg/kg. In addition, in the series with scPTZ seizures, mice, the “protection in the scPTZ seizures” value is reported as “ineffective” and the “scPTZ: number of mice protected/number of mice tested” value is 0/4. The “effect on body (rectal) temperature” value with body temperature, mice is recorded as “caused a significant drop in rectal temperature”. Further, at TRPV1 (VR1) (h), the half-inhibitory concentration (IC50) is 13000 nM and the Kb is 1600 nM.

On to `CC(=O)N[C@@H](C(=O)N1CCN(c2cccc(OC(F)(F)F)c2)CC1)c1ccccc1` [(R)-32, (R)-N-(2-Oxo-1-phenyl-2-(4-(3-(trifluoromethoxy)phenyl)piperazin-1-yl)ethyl)acetamide], for which, in series [1] (50 mg/kg i.p.), the “threshold for the onset of forelimb tonus (ivPTZ)” value was “did not affect the threshold”. Also, the “threshold for the first myoclonic twitch (ivPTZ)” value in series [1] (50 mg/kg i.p., p < 0.0001) is on record as “significantly increased the thresholds”. Further, the “threshold for generalized clonus (ivPTZ)” value in series [1] (50 mg/kg i.p., p < 0.01) is on record as “significantly increased the thresholds”. In addition, the “% inhibition of control specific binding” value in the series with Na+ channel (site 2) is recorded as 40.7 (10) %. For the same compound, in series [2], the responders at 100 mg/kg is 100% and the 50% effective dose (ED50) came to 18.8 mg/kg. Besides, in the series with scPTZ seizures, mice, the “protection in the scPTZ seizures” value is reported as “ineffective” and the “scPTZ: number of mice protected/number of mice tested” value is recorded as 0/4. In addition, the “effect on body (rectal) temperature” value in the series with body temperature, mice is “did not significantly affect body temperature”. Also, at TRPV1 (VR1) (h), the half-maximal inhibitory concentration (IC50) turned out to be 11000 nM and the antagonist equilibrium constant (Kb) is 1400 nM.
